Measured values taken from patent US7504420B2, “Compounds which inhibit beta-secretase activity and methods of use” (CoMentis, Inc., priority 2005, dated 2009).
Where two headings read alike, the source gives them in different places.

How the values were obtained:
[1] = test system: Aβ production in Chinese hamster ovary cells that over-express human APP695 with the London and Swedish mutations; assay: Cellular Aβ IC50 determination (Aβ40 sandwich ELISA); conditions: Cricetulus griseus, CHO, 24 h
memapsin 2 = memapsin 2 (Homo sapiens, UniProt P56817); assay: Inhibition of memapsin 2 catalytic activity (Ki); format: biochemical; conditions: memapsin 2, pH 4, 37° C.; read-out: M2K
Experimental: Potency of compounds were determined by measurement of their inhibition of memapsin 2 catalytic activity toward a fluorescent substrate. […] Briefly, assays were performed at pH 4, 37° C., by pre-incubation of memapsin 2 enzyme with compound for 20 minutes. Activity measure was initiated by addition of a fluorogenic substrate FS-2 (Bachem Americas, Torrance, Calif.). Fluorescent signal increase over time was measured as a rate of hydrolysis of the peptide substrate. […]

[2] = read-out: Cell, Aβ40, CHO cells over-expressing human APP695 (London and Swedish mutations), 24 h

Chain of memapsin 2 (P56817 46-501): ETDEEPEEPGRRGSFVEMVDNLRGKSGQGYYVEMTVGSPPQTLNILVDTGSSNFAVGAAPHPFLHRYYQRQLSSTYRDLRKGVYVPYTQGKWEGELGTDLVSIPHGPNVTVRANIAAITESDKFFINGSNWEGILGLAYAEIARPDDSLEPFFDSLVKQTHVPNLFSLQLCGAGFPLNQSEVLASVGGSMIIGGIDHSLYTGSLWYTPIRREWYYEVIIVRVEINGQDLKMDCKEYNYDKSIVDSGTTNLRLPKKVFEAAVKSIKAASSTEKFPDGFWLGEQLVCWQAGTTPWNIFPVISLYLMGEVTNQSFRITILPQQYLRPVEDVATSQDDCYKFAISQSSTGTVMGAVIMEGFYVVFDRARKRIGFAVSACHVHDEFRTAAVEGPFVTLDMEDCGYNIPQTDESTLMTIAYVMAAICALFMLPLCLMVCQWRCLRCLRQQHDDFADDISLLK

IC50 [1, 2] | Ki (memapsin 2) | Structure (SMILES) | IC50 ([1]; read-out: Cell)
1000 to 5000 nM | < 300 nM | COc1ccc(CCNCC(O)C(Cc2ccccc2)NC(=O)c2cc(C(=O)NC(C)c3ccccc3)cc(N(C)S(C)(=O)=O)c2)cc1O (stereo not drawn) [N1-(3-hydroxy-4-(3-hydroxy-4-methoxyphenethylamino)-1-phenylbutan-2-yl)-5-(N-methylmethylsulfonamido)-N3-(1-phenylethyl)isophthalamide] | 
< 1000 nM | < 300 nM | Cc1csc(CN(C)C(=O)c2cccc(C(=O)NC(Cc3ccccc3)C(O)CNCc3cccc(CC(C)C)c3)c2)n1 (stereo not drawn) [N1-(3-hydroxy-4-(3-isobutylbenzylamino)-1-phenylbutan-2-yl)-N3-methyl-N3-((4-methylthiazol-2-yl)methyl)isophthalamide] | 
> 5000 nM | 301 to 500 nM | COc1cccc(CNCC(O)C(Cc2ccccc2OC)NC(=O)c2cc(C(=O)NC(C)c3ccccc3)cc(N(C)S(C)(=O)=O)c2)c1 (stereo not drawn) [N1-(3-hydroxy-4-(3-methoxybenzylamino)-1-(2-methoxyphenyl)butan-2-yl)-5-(N-methylmethylsulfonamido)-N3-(1-phenylethyl)isophthalamide] | 
< 1000 nM | < 300 nM | COc1cccc(CNCC(O)C(Cc2cscn2)NC(=O)c2cc(C(=O)NC(C)c3ccccc3)cc(N(C)S(C)(=O)=O)c2)c1 (stereo not drawn) [N1-(3-hydroxy-4-(3-methoxybenzylamino)-1-(thiazol-4-yl)butan-2-yl)-5-(N-methylmethylsulfonamido)-N3-(1-phenylethyl)isophthalamide] | 
< 1000 nM | < 300 nM | COc1cccc(CNCC(O)C(Cc2ccccc2)NC(=O)c2cc(C(=O)NC(C)c3nc(C)co3)cc(N(C)S(C)(=O)=O)c2)c1 (stereo not drawn) [N1-(3-hydroxy-4-(3-methoxybenzylamino)-1-phenylbutan-2-yl)-5-(N-methylmethylsulfonamido)-N3-(1-(4-methyloxazol-2-yl)ethyl)isophthalamide] | 
< 1000 nM | < 300 nM | COc1cccc(CNCC(O)C(Cc2ccccc2)NC(=O)c2cc(C(=O)NC(C)c3nccs3)cc(N(C)S(C)(=O)=O)c2)c1 (stereo not drawn) [N1-(3-hydroxy-4-(3-methoxybenzylamino)-1-phenylbutan-2-yl)-5-(N-methylmethylsulfonamido)-N3-(1-(thiazol-2-yl)ethyl)isophthalamide] | 
< 1000 nM | < 300 nM | COc1cccc(CNCC(O)C(Cc2ccccc2)NC(=O)c2cc(CS(C)(=O)=O)cc(C(=O)NC(C)c3ccccc3)c2)c1 (stereo not drawn) [N1-(3-hydroxy-4-(3-methoxybenzylamino)-1-phenylbutan-2-yl)-5-(methylsulfonylmethyl)-N3-(1-phenylethyl)isophthalamide] | 
> 5000 nM | 301 to 500 nM | COc1cccc(CNCC(O)C(Cc2ccccc2)NC(=O)c2cc(C(=O)NCc3nc(CO)co3)cc(N(C)S(C)(=O)=O)c2)c1 (stereo not drawn) [N1-(3-hydroxy-4-(3-methoxybenzylamino)-1-phenylbutan-2-yl)-N3-((4-(hydroxymethyl)oxazol-2-yl)methyl)-5-(N-methylmethylsulfonamido)isophthalamide] | 
< 1000 nM | < 300 nM | COc1cccc(CNCC(O)C(Cc2ccccc2)NC(=O)c2cccc(C(=O)N(Cc3nc(C)cs3)C(C)C)c2)c1 (stereo not drawn) [N1-(3-hydroxy-4-(3-methoxybenzylamino)-1-phenylbutan-2-yl)-N3-isopropyl-N3-((4-methylthiazol-2-yl)methyl)isophthalamide] | 
> 5000 nM |  | COc1cccc(CN(CC(O)C(Cc2ccccc2)NC(=O)c2cc(C(=O)NC(C)c3ccccc3)cc(N(C)S(C)(=O)=O)c2)C(=O)CCCC(=O)NCCN2CCOCC2)c1 (stereo not drawn) [N1-(3-hydroxy-4-(N-(3-methoxybenzyl)-5-(2-morpholinoethylamino)-5-oxopentanamido)-1-phenylbutan-2-yl)-5-(N-methylmethylsulfonamido)-N3-(1-phenylethyl)isophthalamide] | 
> 5000 nM |  | COc1cccc(CN(CC(O)C(Cc2ccccc2)NC(=O)c2cc(C(=O)NC(C)c3ccccc3)cc(N(C)S(C)(=O)=O)c2)C(=O)CCCC(=O)NN2CCN(C)CC2)c1 (stereo not drawn) [N1-(3-hydroxy-4-(N-(3-methoxybenzyl)-5-(4-methylpiperazin-1-ylamino)-5-oxopentanamido)-1-phenylbutan-2-yl)-5-(N-methylmethylsulfonamido)-N3-(1-phenylethyl)isophthalamide] | 
> 5000 nM |  | COc1cccc(CN(CC(O)C(Cc2ccccc2)NC(=O)c2cc(C(=O)NC(C)c3ccccc3)cc(N(C)S(C)(=O)=O)c2)C(=O)CCCC(=O)NCc2cccnc2)c1 (stereo not drawn) [N1-(3-hydroxy-4-(N-(3-methoxybenzyl)-5-oxo-5-(pyridin-3-ylmethylamino)pentanamido)-1-phenylbutan-2-yl)-5-(N-methylmethylsulfonamido)-N3-(1-phenylethyl)isophthalamide] | 
1000 to 5000 nM |  | COc1cccc(CN(CC(O)C(Cc2ccccc2)NC(=O)c2cc(C(=O)NC(C)c3ccccc3)cc(N(C)S(C)(=O)=O)c2)C(=O)CN(C)C)c1 (stereo not drawn) [N1-(4-(2-(dimethylamino)-N-(3-methoxybenzyl)acetamido)-3-hydroxy-1-phenylbutan-2-yl)-5-(N-methylmethylsulfonamido)-N3-(1-phenylethyl)isophthalamide] | 
< 1000 nM |  | COC(=O)CCCC(=O)N(Cc1cccc(OC)c1)CC(O)C(Cc1ccccc1)NC(=O)c1cc(C(=O)NC(C)c2ccccc2)cc(N(C)S(C)(=O)=O)c1 (stereo not drawn) [methyl 5-((2-hydroxy-3-(3-(N-methylmethylsulfonamido)-5-(1-phenylethylcarbamoyl)benzamido)-4-phenylbutyl)(3-methoxybenzyl)amino)-5-oxopentanoate] | 

Second part, the molecule before the results:

Structure (SMILES) | IC50 [1, 2] | Ki (memapsin 2) | IC50 ([1]; read-out: Cell)
COc1cccc(CNCC(O)C(Cc2cc(F)cc(F)c2)NC(=O)c2cccc(C(=O)N(C)Cc3nc(C)cs3)c2)c1 (stereo not drawn) [N1-(1-(3,5-difluorophenyl)-3-hydroxy-4-(3-methoxybenzylamino)butan-2-yl)-N3-methyl-N3-((4-methylthiazol-2-yl)methyl)isophthalamide] | < 1000 nM | < 300 nM | 
CC(NC(=O)c1cc(C(=O)NC(Cc2ccccc2)C(O)CNCc2cccc(OC(F)(F)F)c2)cc(N(C)S(C)(=O)=O)c1)c1ccccc1 (stereo not drawn) [N1-(3-hydroxy-1-phenyl-4-(3-(trifluoromethoxy)benzylamino)butan-2-yl)-5-(N-methylmethylsulfonamido)-N3-(1-phenylethyl)isophthalamide] | < 1000 nM | < 300 nM | 
Cc1csc(CN(C)C(=O)c2cccc(C(=O)NC(Cc3ccccc3)C(O)CNCc3cccc(OC(F)(F)F)c3)c2)n1 (stereo not drawn) [N1-(3-hydroxy-1-phenyl-4-(3-(trifluoromethoxy)benzylamino)butan-2-yl)-N3-methyl-N3-((4-methylthiazol-2-yl)methyl)isophthalamide] | < 1000 nM | < 300 nM | 
CC(NC(=O)c1cc(C(=O)NC(Cc2ccccc2)C(O)CNCc2nccn2COCC[Si](C)(C)C)cc(N(C)S(C)(=O)=O)c1)c1ccccc1 (stereo not drawn) [N1-(3-hydroxy-1-phenyl-4-((1-((2-(trimethylsilyl)ethoxy)methyl)-1H-imidazol-2-yl)methylamino)butan-2-yl)-5-(N-methylmethylsulfonamido)-N3-(1-phenylethyl)isophthalamide] |  | 301 to 500 nM | > 5000 nM
CC(NC(=O)c1cc(C(=O)NC(Cc2ccccc2)C(O)CNCc2cccn2COCC[Si](C)(C)C)cc(N(C)S(C)(=O)=O)c1)c1ccccc1 (stereo not drawn) [N1-(3-hydroxy-1-phenyl-4-((1-((2-(trimethylsilyl)ethoxy)methyl)-1H-pyrrol-2-yl)methylamino)butan-2-yl)-5-(N-methylmethylsulfonamido)-N3-(1-phenylethyl)isophthalamide] |  | 301 to 500 nM | < 1000 nM
Cc1cc(C(C)NCC(O)C(Cc2ccccc2)NC(=O)c2cc(C(=O)NC(C)c3ccccc3)cc(N(C)S(C)(=O)=O)c2)on1 (stereo not drawn) [N1-(3-hydroxy-4-(1-(3-methylisoxazol-5-yl)ethylamino)-1-phenylbutan-2-yl)-5-(N-methylmethylsulfonamido)-N3-(1-phenylethyl)isophthalamide] | < 1000 nM | < 300 nM | 
Cc1csc(C(C)NCC(O)C(Cc2ccccc2)NC(=O)c2cc(C(=O)NC(C)c3ccccc3)cc(N(C)S(C)(=O)=O)c2)n1 (stereo not drawn) [N1-(3-hydroxy-4-(1-(4-methylthiazol-2-yl)ethylamino)-1-phenylbutan-2-yl)-5-(N-methylmethylsulfonamido)-N3-(1-phenylethyl)isophthalamide] | < 1000 nM | < 300 nM | 
CC(NC(=O)c1cc(C(=O)NC(Cc2ccccc2)C(O)CNC(CO)c2ccccc2)cc(N(C)S(C)(=O)=O)c1)c1ccccc1 (stereo not drawn) [N1-(3-hydroxy-4-(2-hydroxy-1-phenylethylamino)-1-phenylbutan-2-yl)-5-(N-methylmethylsulfonamido)-N3-(1-phenylethyl)isophthalamide] | < 1000 nM | < 300 nM | 
COc1ccccc1CNCC(O)C(Cc1ccccc1)NC(=O)c1cccc(C(=O)N(C)Cc2nc(C)cs2)c1 (stereo not drawn) [N1-(3-hydroxy-4-(2-methoxybenzylamino)-1-phenylbutan-2-yl)-N3-methyl-N3-((4-methylthiazol-2-yl)methyl)isophthalamide] | 1000 to 5000 nM | > 501 nM | 
COc1ccccc1CCNCC(O)C(Cc1ccccc1)NC(=O)c1cccc(C(=O)N(C)Cc2nc(C)cs2)c1 (stereo not drawn) [N1-(3-hydroxy-4-(2-methoxyphenethylamino)-1-phenylbutan-2-yl)-N3-methyl-N3-((4-methylthiazol-2-yl)methyl)isophthalamide] | 1000 to 5000 nM | > 501 nM | 
COc1cc(CCCNCC(O)C(Cc2ccccc2)NC(=O)c2cc(C(=O)NC(C)c3ccccc3)cc(N(C)S(C)(=O)=O)c2)ccc1C (stereo not drawn) [N1-(3-hydroxy-4-(3-(3-methoxy-4-methylphenyl)propylamino)-1-phenylbutan-2-yl)-5-(N-methylmethylsulfonamido)-N3-(1-phenylethyl)isophthalamide] | 1000 to 5000 nM | < 300 nM | 
